For test [1], the target named is T1, AsPC-1 HiBiT-KRASG12D (Homo sapiens, UniProt P01116, G12D).
T1 construct: insert the HiBiT tag onto the N-terminus of one or more of the endogenous KRAS alleles; endogenous in cells; host or cells: AsPC-1 (ATCC CRL-1682), CRISPR-Cas9 knock-in clone, one tagged allele
The test is described as follows: HiBiT degradation assay (G12D), AsPC-1 HiBiT-KRASG12D cells. The format is cell-based. Conditions: 24 hours treatment; for DC50: AsPC-1 HiBiT-KRASG12D cells, HiBiT luminescence; for Dmax: ASPC1, AsPC-1 HiBiT-KRASG12D cells, maximum degradation observed. The method, boiled down:
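HiBiT-KRAS abundance was read as Nano-Glo HiBiT lytic luminescence (45 min, room temperature) after a PBS wash. Before that, a 4 h alamar blue fluorescence read, normalized to DMSO, monitored viability. Treatment lasted 24 hours at 37 °C, in triplicate, using AsPC-1 cells with endogenous N-terminally HiBiT-tagged KRAS G12D.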
On the technique in general: With HiBiT, luminescence reflects the tagged protein that the partner subunit can reach.

Test [2] addresses T2, SW1573 HiBiT-KRASG12C (Homo sapiens, UniProt P01116, G12C).
T2 construct: expressed in transfected cells
The experiment in a line: HiBiT degradation assay (G12C), SW1573 HiBiT-KRASG12C cells.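 For DC50: Letter grades: C is 1000 to 3000 nM and D is above 3000 nM.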 As to conditions: 24 hours treatment; for DC50: HiBiT luminescence; for Dmax: maximum degradation observed. The test is classed as cell-based. The method, then: Reagents. SW1573 (CRL-2170), AsPC-1 (CRL-1682), and SW620 (CCL-227) cells were purchased from ATCC. SW1573 cells are homozygous for the G12C mutation in KRAS, AsPC-1 cells are homozygous for the G12D mutation, and SW620 cells are homozygous for the G12V mutation. SW1573 cells were cultured in DMEM+F12+Glutamax (+Sodium Bicarbonate, +sodium pyruvate, ThermoFisher scientific, #10565) supplemented with 10% FBS (ThermoFisher scientific, #2060357) and 1% Antibiotic-Antimycotic (ThermoFisher scientific, #15240096). AsPC-1 cells were cultured in GIBCO RPMI-1640 (ThermoFisher scientific, catalog #61870-036 with Glutamax, No HEPES, No Na Pyruvate) supplemented with 10% FBS (ThermoFisher scientific, catalog #2060357) and 1× Penicillin-Streptomycin (ThermoFisher scientific, catalog #15140122, 10000 U/ml, 100×). SW620 cells were cultured in DMEM Glutamax (ThermoFisher scientific, catalog #10566016) supplemented with 10% FBS (ThermoFisher scientific, catalog #2060357) and 1× Penicillin-Streptomycin (ThermoFisher scientific, catalog #15140122, 10000 U/ml, 100×). For degradation assays, 384 well plates were used. Alamar blue was purchased from ThermoFisher scientific (A50101) and used according to manufacturer instructions. The Nano-Glo® HiBiT Lytic Detection System and Nano-Glo® HiBiT Blotting System were purchased from Promega (#N3050 and #N2410) and used according to manufacturer instructions.
HiBiT-tagged cell line generation. To create the SW1573 HiBiT-KRASG12C cell line, the nucleotide sequence encoding the 11 amino acid HiBiT tag from Promegal was appended to the N-terminus of the KRASG12C coding sequence. This synthesized DNA was cloned into a modified pcDNA3.1 vector under the control of the thymidine kinase (TK) promoter. This HiBiT-KRASG12C expressing plasmid was transfected into parental SW1573 cells and colonies were selected using 400 μg/mL zeocin. The resulting clonal lines were screened for expression of HiBiT-KRASG12C protein using Nano-Glo® HiBiT Blotting System. A luminescent band of the correct size for HiBiT-KRASG12C was detected in several clones. Clone E6 was selected for further studies.
HiBiT degradation assays (G12C and G12D). Either SW1573 HiBiT-KRasG12C or AsPC-1 HiBiT-KRasG12D cells were plated at 9000 or 15,000 cells/well in a 384 well plate (Corning #3770). Compounds of the present disclosure and positive controls were diluted in the appropriate cell media and applied to the plated cells resulting in a final concentration titration of 10 μM to 508 pM in 0.5% DMSO. Gambogic acid was used as a positive control for cytotoxicity and titrated from 10 μM to 78 nM. All assays were performed in triplicate. Cells were treated with compounds for 24 hours at 37° C. in an incubator containing 5% CO2. Following treatment, alamar blue was used to determine if any compounds led to a loss in cell viability after 24 hours. The 10× alamar blue reagent was added to a final concentration of 1× as recommended by the manufacturer and cells were returned to the incubator for 4 hours. Plates were then allowed to equilibrate to room temperature and fluorescence was measured using a Perkin-Elmer EnVision. After completion of the fluorescence read, the liquid from each well was removed and the cells were washed with PBS. The Nano-Glo® HiBiT detection reagent was prepared according to the manufacturer's instructions and added to each well after the PBS wash was removed. Following incubation at room temperature for 45 minutes, the luminescence was read using the ultra-sensitive luminescence aperture on the Envision instrument.
Data analysis. Fluorescence values from the alamar blue treatment were normalized to the DMSO-only control for each compound titration. […]

T2 sequence (P01116 1-188 isoform P01116-2 G12C): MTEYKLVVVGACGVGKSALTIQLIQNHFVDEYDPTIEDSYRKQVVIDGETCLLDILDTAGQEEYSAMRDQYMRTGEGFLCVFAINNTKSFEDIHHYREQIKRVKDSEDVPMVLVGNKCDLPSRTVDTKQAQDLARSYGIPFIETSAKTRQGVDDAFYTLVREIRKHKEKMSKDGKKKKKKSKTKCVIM
T1 sequence (P01116 1-188 isoform P01116-2 G12D): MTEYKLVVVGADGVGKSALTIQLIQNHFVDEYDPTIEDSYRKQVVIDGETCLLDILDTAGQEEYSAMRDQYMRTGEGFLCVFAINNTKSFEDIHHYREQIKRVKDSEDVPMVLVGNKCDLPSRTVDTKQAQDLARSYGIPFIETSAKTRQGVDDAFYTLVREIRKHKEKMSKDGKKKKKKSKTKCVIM

As for `CCc1cccc2cc(O)cc(-c3ncc4c(N5CC6CCC(C6)C5)nc(OCCN5CCC(COCC(=O)N[C@H](C(=O)N6C[C@H](O)C[C@H]6C(=O)N[C@@H](C)c6ccc(-c7scnc7C)cc6)C(C)(C)C)CC5)nc4c3F)c12` [Compound 19, (2S,4R)-1-[(2S)-2-[[2-[[1-[2-[4-(3-azabicyclo[3.2.1]octan-3-yl)-7-(8-ethyl-3-hydroxy-1-naphthyl)-8-fluoro-pyrido[4,3-d]pyrimidin-2-yl]oxyethyl]-4-piperidyl]methoxy]acetyl]amino]-3,3-dimethyl-butanoyl]-4-hydroxy-N-[(1S)-1-[4-(4-methylthiazol-5-yl)phenyl]ethyl]pyrrolidine-2-carboxamide], the DC50 in test [1] is > 3 µM. In test [2], this compound gave a DC50 of 1 to 3 µM and a Dmax of 20 to 60%.
With `CCc1cccc2cc(O)cc(-c3ncc4c(N5CC6CCC(C5)N6)nc(OCCN5CCC(COc6cc([C@@H](C(=O)N7C[C@H](O)C[C@H]7C(=O)N[C@@H](C)c7ccc(-c8scnc8C)cc7)C(C)C)on6)CC5)nc4c3F)c12` [Compound 8, (2S,4R)-1-[(2S)-2-[3-[[1-[2-[4-(3,8-diazabicyclo[3.2.1]octan-3-yl)-7-(8-ethyl-3-hydroxy-1-naphthyl)-8-fluoro-pyrido[4,3-d]pyrimidin-2-yl]oxyethyl]-4-piperidyl]methoxy]isoxazol-5-yl]-3-methyl-butanoyl]-4-hydroxy-N-[(1S)-1-[4-(4-methylthiazol-5-yl)phenyl]ethyl]pyrrolidine-2-carboxamide], the Dmax in test [1] was 20 to 60%. Also, the DC50 is 1 to 3 µM in test [1] and > 3 µM in test [2].
On to `CCc1cccc2cc(O)cc(-c3ncc4c(N5CC6CCC(C5)N6)nc(OCCN5CCC(CCOCC(=O)N[C@H](C(=O)N6C[C@H](O)C[C@H]6C(=O)N[C@@H](C)c6ccc(-c7scnc7C)cc6)C(C)(C)C)CC5)nc4c3F)c12` [Compound 13], for which the Dmax in test [1] was in the range of 80 to 100%. The DC50 in test [1] is 0.6 to 1 µM; in test [2] it was > 3 µM.
Regarding `CCc1cccc2cccc(-c3ncc4c(N5CC6CCC(C5)N6)nc(OC[C@@]56CCCN5[C@H](COC(=O)N5CCN(c7cc([C@H](C(=O)N8C[C@H](O)C[C@H]8C(=O)N[C@@H](C)c8ccc(-c9scnc9C)cc8)C(C)C)on7)CC5)CC6)nc4c3F)c12` [Compound 35, [(3S,7aS)-7a-{[(4-{3,8-diazabicyclo[3.2.1]octan-3-yl}-7-(8-ethylnaphthalen-1-yl)-8-fluoropyrido[4,3-d]pyrimidin-2-yl)oxy]methyl}-hexahydro-1H-pyrrolizin-3-yl]methyl 4-{5-[(2R)-1-[(2S,4R)-4-hydroxy-2-{[(1S)-1-[4-(4-methyl-1,3-thiazol-5-yl)phenyl]ethyl]carbamoyl}pyrrolidin-1-yl]-3-methyl-1-oxobutan-2-yl]-1,2-oxazol-3-yl}piperazine-1-carboxylate], in test [1], the Dmax is 80 to 100% and the DC50 was < 0.6 µM. The DC50 in test [2] is > 3 µM.
Consider `Cc1ncsc1-c1ccc([C@H](C)NC(=O)[C@@H]2C[C@@H](O)CN2C(=O)[C@@H](c2cc(OCC3CCN(CCOc4nc(N5CC6CCC(C5)N6)c5cnc(-c6c(OC(F)(F)F)ccc7[nH]ncc67)c(F)c5n4)CC3)no2)C(C)C)cc1` [Compound 47, (2S,4R)-1-[(2R)-2-{3-[(1-{2-[(4-{3,8-diazabicyclo[3.2.1]octan-3-yl}-8-fluoro-7-[5-(trifluoromethoxy)-1H-indazol-4-yl]pyrido[4,3-d]pyrimidin-2-yl)oxy]ethyl}piperidin-4-yl)methoxy]-1,2-oxazol-5-yl}-3-methylbutanoyl]-4-hydroxy-N-[(1S)-1-[4-(4-methyl-1,3-thiazol-5-yl)phenyl]ethyl]pyrrolidine-2-carboxamide], for which the DC50 in test [1] and in test [2] was > 3 µM each time.
For `C#Cc1cccc2cc(O)cc(-c3ncc4c(N5CC6CCC(C6)C5)nc(OCCN5CCC(COCC(=O)N[C@H](C(=O)N6C[C@H](O)C[C@H]6C(=O)N[C@@H](C)c6ccc(-c7scnc7C)cc6)C(C)(C)C)CC5)nc4c3F)c12` [Compound 17, (2S,4R)-1-[(2S)-2-[[2-[[1-[2-[4-(3-azabicyclo[3.2.1]octan-3-yl)-7-(8-ethynyl-3-hydroxy-1-naphthyl)-8-fluoro-pyrido[4,3-d]pyrimidin-2-yl]oxyethyl]-4-piperidyl]methoxy]acetyl]amino]-3,3-dimethyl-butanoyl]-4-hydroxy-N-[(1S)-1-[4-(4-methylthiazol-5-yl)phenyl]ethyl]pyrrolidine-2-carboxamide], the DC50 in test [1] is > 3 µM. In test [2], the DC50 fell in the range of 1 to 3 µM and the greatest degradation seen (Dmax) lay in the range of 20 to 60%.
On to `C#Cc1cccc2cc(O)cc(-c3ncc4c(N5CC6CCC(C5)N6)nc(OCCN5CCC6(CC5)CN(c5cc([C@H](C(=O)N7C[C@H](O)C[C@H]7C(=O)N[C@@H](C)c7ccc(-c8scnc8C)cc7)C(C)C)on5)C6)nc4c3F)c12` [Compound 36, (2S,4R)-1-[(2R)-2-[3-(7-{2-[(4-{3,8-diazabicyclo[3.2.1]octan-3-yl}-7-(8-ethynyl-3-hydroxynaphthalen-1-yl)-8-fluoropyrido[4,3-d]pyrimidin-2-yl)oxy]ethyl}-2,7-diazaspiro[3.5]nonan-2-yl)-1,2-oxazol-5-yl]-3-methylbutanoyl]-4-hydroxy-N-[(1S)-1-[4-(4-methyl-1,3-thiazol-5-yl)phenyl]ethyl]pyrrolidine-2-carboxamide], for which, in test [1], the Dmax fell in the range of 80 to 100% and the DC50 was < 0.6 µM. Also, the DC50 in test [2] was > 3 µM.
For `CCc1cccc2cc(O)cc(-c3ncc4c(N5CC6CCC(C5)N6)nc(OCCN5CCC(COc6cc([C@H](C(=O)N7C[C@H](O)C[C@H]7C(=O)N[C@@H](C)c7ccc(-c8scnc8C)cc7)C(C)C)on6)CC5)nc4c3F)c12` [Compound 20, (2S,4R)-1-[(2R)-2-[3-[[1-[2-[4-(3,8-diazabicyclo[3.2.1]octan-3-yl)-7-(8-ethyl-3-hydroxy-1-naphthyl)-8-fluoro-pyrido[4,3-d]pyrimidin-2-yl]oxyethyl]-4-piperidyl]methoxy]isoxazol-5-yl]-3-methyl-butanoyl]-4-hydroxy-N-[(1S)-1-[4-(4-methylthiazol-5-yl)phenyl]ethyl]pyrrolidine-2-carboxamide] the same measures were 80 to 100%, < 0.6 µM and > 3 µM.
As for `C#Cc1c(F)ccc2cc(O)cc(-c3ncc4c(N5CC6CCC(C5)N6)nc(OCCN5CCC(COc6cc([C@H](C(=O)N7C[C@H](O)C[C@H]7C(=O)N[C@@H](C)c7ccc(-c8scnc8C)cc7)C(C)C)on6)CC5)nc4c3F)c12` [Compound 39, (2S,4R)-1-[(2R)-2-{3-[(1-{2-[(4-{3,8-diazabicyclo[3.2.1]octan-3-yl}-7-(8-ethynyl-7-fluoro-3-hydroxynaphthalen-1-yl)-8-fluoropyrido[4,3-d]pyrimidin-2-yl)oxy]ethyl}piperidin-4-yl)methoxy]-1,2-oxazol-5-yl}-3-methylbutanoyl]-4-hydroxy-N-[(1S)-1-[4-(4-methyl-1,3-thiazol-5-yl)phenyl]ethyl]pyrrolidine-2-carboxamide], in test [1], the maximal degradation (Dmax) lay in the range of 80 to 100% and the DC50 is < 0.6 µM. Further, in test [2], the DC50 lay within 1 to 3 µM and the Dmax lay within 20 to 60%.

In general, DC50 refers to the midpoint of the concentration-degradation curve. What is called Dmax is the largest share of the target that was removed. A high value points to deep degradation.

The values are drawn from US20250206732A1, “COMPOUNDS AND METHODS FOR THE TARGETED DEGRADATION OF KRAS” (Arvinas Operations, Inc., priority 2022, published 2025).
